# Data from patent US6420383B1, “Thiepino[3,2-b]dihydropyridines and related compositions and methods” (Ortho-McNeil Pharmaceutical, Inc., priority 2000, dated 2002).
# Target: T1, calcium channel (3H-nitrendipine binding, heart membranes) (Oryctolagus cuniculus, UniProt P15381)
# T1 construct: from tissue; host or cells: rabbit heart membrane preparation
# Assay: Assay for inhibition of nitrendipine binding (calcium channel antagonist activity)
# Conditions: 3H-nitrendipine 0.05-0.50 nM, rabbit heart membranes, 90 minutes at 4° C.
# Procedure: Female, New Zealand white rabbits (1-2 kg) are sacrificed by cervical dislocation, and the heart is immediately removed, cleaned and chopped into small pieces. The tissue is homogenized in 5×times volume of 0.05M Hepes buffer, pH 7.4. The homogenate is centrifuged at 4000 g for 10 minutes, and the supernatant is re-centrifuged at 42,000×g for 90 minutes. The resulting membrane pellet is re-suspended (0.7 ml/g weight) in 0.05M Hepes, pH 7.4 and stored at […] until used. Each tube of the binding assay contains ^3H-nitrendipine (0.05-0.50 nM), buffer, membranes (0.10 ml), and test compound in a total volume of 1.0 ml. After 90 minutes at 4° C., the bound nitrendipine is separated from the unbound by filtration on Whatman GF/C filters. After rinsing, the filters are dried and counted in a liquid scintillation counter.
# Non-specific binding of ^3H-nitrendipine (that amount bound in the presence of excess unlabelled nitrendipine) is subtracted from the total bound to obtain specifically bound radiolabeled nitrendipine. The amount of specifically bound nitrendipine in the presence of a test compound is compared to that amount bound in the absence of a compound. A percent displacement (or inhibition) can then be calculated.
# T1 sequence (P15381 whole entry, other chains not shown): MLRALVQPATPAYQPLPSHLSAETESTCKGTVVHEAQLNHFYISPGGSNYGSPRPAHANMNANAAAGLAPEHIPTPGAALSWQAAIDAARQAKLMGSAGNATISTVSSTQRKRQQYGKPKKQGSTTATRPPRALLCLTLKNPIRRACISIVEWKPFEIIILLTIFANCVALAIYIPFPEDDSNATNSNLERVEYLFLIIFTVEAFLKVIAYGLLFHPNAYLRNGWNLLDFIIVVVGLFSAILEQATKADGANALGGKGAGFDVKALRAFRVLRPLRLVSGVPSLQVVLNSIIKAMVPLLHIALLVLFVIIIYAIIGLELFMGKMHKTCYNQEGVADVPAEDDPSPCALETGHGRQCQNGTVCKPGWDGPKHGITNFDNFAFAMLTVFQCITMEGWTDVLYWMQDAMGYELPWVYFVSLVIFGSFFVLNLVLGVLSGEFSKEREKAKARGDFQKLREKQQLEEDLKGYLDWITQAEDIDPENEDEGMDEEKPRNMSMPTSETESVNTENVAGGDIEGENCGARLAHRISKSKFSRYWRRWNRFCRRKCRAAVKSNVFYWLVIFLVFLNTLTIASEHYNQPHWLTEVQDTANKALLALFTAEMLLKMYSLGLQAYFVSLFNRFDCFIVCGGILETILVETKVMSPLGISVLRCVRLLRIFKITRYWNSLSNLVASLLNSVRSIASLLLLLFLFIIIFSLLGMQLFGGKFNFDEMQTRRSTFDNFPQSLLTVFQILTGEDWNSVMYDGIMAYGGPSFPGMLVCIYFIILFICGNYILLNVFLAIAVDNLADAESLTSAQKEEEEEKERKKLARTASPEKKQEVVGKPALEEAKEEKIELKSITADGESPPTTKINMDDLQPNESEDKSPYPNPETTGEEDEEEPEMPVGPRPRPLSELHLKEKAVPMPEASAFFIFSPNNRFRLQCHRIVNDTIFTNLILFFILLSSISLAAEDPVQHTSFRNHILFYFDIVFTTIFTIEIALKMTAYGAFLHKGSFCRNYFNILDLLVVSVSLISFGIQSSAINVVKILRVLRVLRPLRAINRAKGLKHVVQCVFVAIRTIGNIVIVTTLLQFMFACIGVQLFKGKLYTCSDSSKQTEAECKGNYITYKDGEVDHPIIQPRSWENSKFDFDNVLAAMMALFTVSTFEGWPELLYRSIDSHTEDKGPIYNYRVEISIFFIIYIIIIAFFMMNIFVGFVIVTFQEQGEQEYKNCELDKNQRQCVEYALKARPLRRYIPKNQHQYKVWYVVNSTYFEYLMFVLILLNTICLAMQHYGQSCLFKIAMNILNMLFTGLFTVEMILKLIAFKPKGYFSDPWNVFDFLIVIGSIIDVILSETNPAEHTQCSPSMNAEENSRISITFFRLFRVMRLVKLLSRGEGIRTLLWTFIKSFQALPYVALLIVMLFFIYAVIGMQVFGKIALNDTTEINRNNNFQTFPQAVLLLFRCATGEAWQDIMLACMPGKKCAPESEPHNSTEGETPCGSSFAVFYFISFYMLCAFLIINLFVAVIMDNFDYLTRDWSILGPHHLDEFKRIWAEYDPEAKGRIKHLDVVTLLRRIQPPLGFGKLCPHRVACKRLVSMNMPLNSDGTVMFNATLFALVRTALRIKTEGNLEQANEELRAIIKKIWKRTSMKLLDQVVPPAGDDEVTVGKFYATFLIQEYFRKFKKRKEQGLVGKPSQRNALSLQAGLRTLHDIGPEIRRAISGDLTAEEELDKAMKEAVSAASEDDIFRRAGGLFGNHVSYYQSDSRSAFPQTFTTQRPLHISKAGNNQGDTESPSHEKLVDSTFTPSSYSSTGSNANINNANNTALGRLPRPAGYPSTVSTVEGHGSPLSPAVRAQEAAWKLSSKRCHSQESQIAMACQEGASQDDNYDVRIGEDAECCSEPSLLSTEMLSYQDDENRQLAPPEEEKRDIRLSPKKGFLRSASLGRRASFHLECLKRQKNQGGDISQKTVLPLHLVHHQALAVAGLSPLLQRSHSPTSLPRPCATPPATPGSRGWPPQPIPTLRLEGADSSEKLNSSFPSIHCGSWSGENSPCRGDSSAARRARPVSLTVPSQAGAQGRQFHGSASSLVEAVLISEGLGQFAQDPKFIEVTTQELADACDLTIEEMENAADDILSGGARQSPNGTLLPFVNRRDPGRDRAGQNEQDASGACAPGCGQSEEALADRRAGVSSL
# T1 sequence (P13806 27-960 partner limits assumed, other chains not shown): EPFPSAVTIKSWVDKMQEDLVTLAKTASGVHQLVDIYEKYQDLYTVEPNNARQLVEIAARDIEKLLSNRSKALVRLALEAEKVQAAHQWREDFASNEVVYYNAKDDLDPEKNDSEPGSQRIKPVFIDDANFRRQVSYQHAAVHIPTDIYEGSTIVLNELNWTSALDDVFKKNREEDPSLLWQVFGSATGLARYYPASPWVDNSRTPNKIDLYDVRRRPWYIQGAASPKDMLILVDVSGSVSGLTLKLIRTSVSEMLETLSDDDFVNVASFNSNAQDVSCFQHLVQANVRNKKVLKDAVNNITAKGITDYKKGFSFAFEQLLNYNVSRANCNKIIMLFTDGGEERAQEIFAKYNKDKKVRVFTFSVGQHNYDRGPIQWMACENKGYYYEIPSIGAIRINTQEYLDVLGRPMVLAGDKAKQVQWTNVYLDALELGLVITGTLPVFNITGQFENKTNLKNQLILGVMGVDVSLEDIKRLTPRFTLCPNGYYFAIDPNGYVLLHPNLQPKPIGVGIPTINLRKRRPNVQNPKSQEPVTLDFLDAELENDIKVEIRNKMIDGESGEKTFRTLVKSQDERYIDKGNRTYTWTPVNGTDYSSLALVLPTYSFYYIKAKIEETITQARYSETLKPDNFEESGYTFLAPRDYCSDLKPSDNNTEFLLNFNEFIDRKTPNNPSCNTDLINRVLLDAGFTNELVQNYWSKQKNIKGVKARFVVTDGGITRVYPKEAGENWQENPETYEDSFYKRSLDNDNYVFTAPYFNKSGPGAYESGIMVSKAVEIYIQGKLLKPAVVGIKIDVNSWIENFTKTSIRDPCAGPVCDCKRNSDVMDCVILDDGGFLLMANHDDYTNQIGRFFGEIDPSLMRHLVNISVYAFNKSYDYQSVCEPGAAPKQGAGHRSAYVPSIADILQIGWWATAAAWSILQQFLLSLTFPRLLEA
# T1 sequence (P13806 961-1106 partner limits assumed, other chains not shown): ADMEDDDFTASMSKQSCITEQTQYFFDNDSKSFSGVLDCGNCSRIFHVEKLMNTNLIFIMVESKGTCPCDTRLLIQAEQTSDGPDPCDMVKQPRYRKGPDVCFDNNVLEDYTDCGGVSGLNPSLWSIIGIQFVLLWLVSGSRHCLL
row,SMILES,IC50
1,"CCOC(=O)C1=C(c2ccccc2)NC2=C(C1c1ccc(Cl)cc1)S(=O)(=O)CCCC2 (centres unmarked) [Compound 1, Thiepino[3,2-b]pyridine-3-carboxylic acid, 4-(4-chlorophenyl)-1,4,6,7,8,9-hexahydro-2-phenyl-, ethyl ester, 5,5-dioxide]",2000 nM
2,"CCOC(=O)C1=C(c2ccccc2)NC2=C(C1c1cccc(Cl)c1Cl)S(=O)(=O)CCCC2 (centres unmarked) [Compound 2, Thiepino[3,2-b]pyridine-3-carboxylic acid, 4-(2,3-dichlorophenyl)-1,4,6,7,8,9-hexahydro-2-phenyl-, ethyl ester, 5,5-dioxide]",115 nM
3,"COC(=O)C1=C(c2ccccc2)NC2=C(C1c1cccc(Cl)c1)S(=O)(=O)CCCC2 (centres unmarked) [Compound 3, Thiepino[3,2-b]pyridine-3-carboxylic acid, 4-(3-chlorophenyl)-1,4,6,7,8,9-hexahydro-2-phenyl-, methyl ester, 5,5-dioxide]",2000 nM
4,"CN(CCOC(=O)C1=C(c2ccccc2)NC2=C(C1c1cccc(Cl)c1)S(=O)(=O)CCCC2)Cc1ccccc1 (centres unmarked) [Compound 4, Thiepino[3,2-b]pyridine-3-carboxylic acid, 4-(3-chlorophenyl)-1,4,6,7,8,9-hexahydro-2-phenyl-, 2-[methyl(phenylmethyl)amino]ethyl ester, 5,5-dioxide]",192 nM
5,"CN(CCOC(=O)C1=C(c2ccccc2)NC2=C(C1c1c(O)cccc1Cl)S(=O)(=O)CCCC2)Cc1ccccc1 (centres unmarked) [Compound 5, Thiepino[3,2-b]pyridine-3-carboxylic acid, 4-(2-chloro-6-hydroxyphenyl)-1,4,6,7,8,9-hexahydro-2-phenyl-, 2-[methyl(phenylmethyl)amino]ethyl ester, 5,5-dioxide]",2000 nM
6,"CN(CCOC(=O)C1=C(c2ccccc2)NC2=C(C1c1ccccc1Cl)S(=O)(=O)CCCC2)Cc1ccccc1 (centres unmarked) [Compound 6, Thiepino[3,2-b]pyridine-3-carboxylic acid, 4-(2-chlorophenyl)-1,4,6,7,8,9-hexahydro-2-phenyl-, 2-[methyl(phenylmethyl)amino]ethyl ester, 5,5-dioxide]",312 nM
7,"CCOC(=O)C1=C(c2ccccc2)NC2=C(C1c1c(O)cccc1Cl)S(=O)(=O)CCCC2 (centres unmarked) [Compound 7, Thiepino[3,2-b]pyridine-3-carboxylic acid, 4-(2-chloro-6-hydroxyphenyl)-1,4,6,7,8,9-hexahydro-2-phenyl-, ethyl ester, 5,5-dioxide]",2000 nM
8,"CCOC(=O)C1=C(c2ccccc2)NC2=C(C1c1ccccc1Cl)S(=O)(=O)CCCC2 (centres unmarked) [Compound 8, Thiepino[3,2-b]pyridine-3-carboxylic acid, 4-(2-chlorophenyl)-1,4,6,7,8,9-hexahydro-2-phenyl-, ethyl ester, 5,5-dioxide]",580 nM
9,"CC1=C(C(=O)OCCN(C)Cc2cccs2)C(c2c(F)cccc2Cl)C2=C(CCCCS2(=O)=O)N1 (centres unmarked) [Compound 9, Thiepino[3,2-b]pyridine-3-carboxylic acid, 4-(2-chloro-6-fluorophenyl)-1,4,6,7,8,9-hexahydro-2-methyl-, 2-[methyl(2-thienylmethyl)amino]ethyl ester, 5,5-dioxide]",29.5 nM
10,"CCOC(=O)C1=C(c2ccccc2)NC2=C(C1c1c(F)c(F)c(F)c(F)c1F)S(=O)(=O)CCCC2 (centres unmarked) [Compound 10, Thiepino[3,2-b]pyridine-3-carboxylic acid, 1,4,6,7,8,9-hexahydro-4-(2,3,4,5,6-pentafluorophenyl)-2-phenyl-, ethyl ester, 5,5-dioxide]",684 nM
11,"CCOC(=O)C1=C(c2ccccc2)NC2=C(C1c1cccc([N+](=O)[O-])c1)S(=O)(=O)CCCC2 (centres unmarked) [Compound 11, Thiepino[3,2-b]pyridine-3-carboxylic acid, 1,4,6,7,8,9-hexahydro-4-(3-nitrophenyl)-2-phenyl-, ethyl ester, 5,5-dioxide]",6950 nM
12,"CC1=C(C(=O)OCCN(C)Cc2cccs2)C(c2c(F)c(F)c(F)c(F)c2F)C2=C(CCCCS2(=O)=O)N1 (centres unmarked) [Compound 12, Thiepino[3,2-b]pyridine-3-carboxylic acid, 1,4,6,7,8,9-hexahydro-2-methyl-4-(2,3,4,5,6-pentafluorophenyl)-, 2-[methyl(2-thienylmethyl)amino]ethyl ester, 5,5-dioxide]",5.9 nM
13,"CC1=C(C(=O)OCCN(C)Cc2cccs2)C(c2cccc([N+](=O)[O-])c2)C2=C(CCCCS2(=O)=O)N1 (centres unmarked) [Compound 13, Thiepino[3,2-b]pyridine-3-carboxylic acid, 1,4,6,7,8,9-hexahydro-2-methyl-4-(3-nitrophenyl)-, 2-[methyl(2-thienylmethyl)amino]ethyl ester, 5,5-dioxide]",7.1 nM
14,"CC1=C(C(=O)OCCN(C)Cc2cccs2)C(c2ccccc2Cl)C2=C(CCCCS2(=O)=O)N1 (centres unmarked) [Compound 14, Thiepino[3,2-b]pyridine-3-carboxylic acid, 4-(2-chlorophenyl)-1,4,6,7,8,9-hexahydro-2-methyl-, 2-[methyl(2-thienylmethyl)amino]ethyl ester, 5,5-dioxide]",15 nM
15,"CCOC(=O)C1=C(c2cccs2)NC2=C(C1c1ccccc1Cl)S(=O)(=O)CCCC2 (centres unmarked) [Compound 15, Thiepino[3,2-b]pyridine-3-carboxylic acid, 4-(2-chlorophenyl)-1,4,6,7,8,9-hexahydro-2-(2-thienyl)-, ethyl ester, 5,5-dioxide]",2500 nM
16,"CCOC(=O)C1=C(c2cccs2)NC2=C(C1c1cccc(Cl)c1)S(=O)(=O)CCCC2 (centres unmarked) [Compound 16, Thiepino[3,2-b]pyridine-3-carboxylic acid, 4-(3-chlorophenyl)-1,4,6,7,8,9-hexahydro-2-(2-thienyl)-, ethyl ester, 5,5-dioxide]",2300 nM
17,"CN(CCOC(=O)C1=C(c2ccccc2)NC2=C(C1c1ccccc1Cl)S(=O)(=O)CCCC2)Cc1cccs1 (centres unmarked) [Compound 17, Thiepino[3,2-b]pyridine-3-carboxylic acid, 4-(2-chlorophenyl)-1,4,6,7,8,9-hexahydro-2-phenyl-, 2-[methyl(2-thienylmethyl)amino]ethyl ester, 5,5-dioxide]",500 nM
18,"CN(CCOC(=O)C1=C(c2ccccc2)NC2=C(C1c1cccc([N+](=O)[O-])c1)S(=O)(=O)CCCC2)Cc1cccs1 (centres unmarked) [Compound 18, Thiepino[3,2-b]pyridine-3-carboxylic acid, 1,4,6,7,8,9-hexahydro-4-(3-nitrophenyl)-2-phenyl-, 2-[methyl(2-thienylmethyl)amino]ethyl ester, 5,5-dioxide]",26000 nM
19,"CN(CCOC(=O)C1=C(c2ccccc2)NC2=C(C1c1cccc(Cl)c1)S(=O)(=O)CCCC2)Cc1cccs1 (centres unmarked) [Compound 19, Thiepino[3,2-b]pyridine-3-carboxylic acid, 4-(3-chlorophenyl)-1,4,6,7,8,9-hexahydro-2-phenyl-, 2-[methyl(2-thienylmethyl)amino]ethyl ester, 5,5-dioxide]",1290 nM
20,"CCOC(=O)C1=C(c2cccs2)NC2=C(C1c1cccc([N+](=O)[O-])c1)S(=O)(=O)CCCC2 (centres unmarked) [Compound 20, Thiepino[3,2-b]pyridine-3-carboxylic acid, 1,4,6,7,8,9-hexahydro-4-(3-nitrophenyl)-2-(2-thienyl)-, ethyl ester, 5,5-dioxide]",6540 nM
21,"CCOC(=O)C1=C(c2cccnc2)NC2=C(C1c1ccccc1Cl)S(=O)(=O)CCCC2 (centres unmarked) [Compound 21, Thiepino[3,2-b]pyridine-3-carboxylic acid, 4-(2-chlorophenyl)-1,4,6,7,8,9-hexahydro-2-(3-pyridinyl)-, ethyl ester, 5,5-dioxide]",2000 nM
22,"CCOC(=O)C1=C(c2cccnc2)NC2=C(C1c1cccc(Cl)c1)S(=O)(=O)CCCC2 (centres unmarked) [Compound 22, Thiepino[3,2-b]pyridine-3-carboxylic acid, 4-(3-chlorophenyl)-1,4,6,7,8,9-hexahydro-2-(3-pyridinyl)-, ethyl ester, 5,5-dioxide]",2000 nM
23,"CCOC(=O)C1=C(c2cccnc2)NC2=C(C1c1cccc(C(F)(F)F)c1F)S(=O)(=O)CCCC2 (centres unmarked) [Compound 23, Thiepino[3,2-b]pyridine-3-carboxylic acid, 4-[2-fluoro-3-(trifluoromethyl)phenyl]-1,4,6,7,8,9-hexahydro-2-(3-pyridinyl)-, ethyl ester, 5,5-dioxide]",2000 nM
24,"CC1=C(C(=O)OCCN(C)Cc2ccsc2)C(c2ccccc2Cl)C2=C(CCCCS2(=O)=O)N1 (centres unmarked) [Compound 24, Thiepino[3,2-b]pyridine-3-carboxylic acid, 4-(2-chlorophenyl)-1,4,6,7,8,9-hexahydro-2-methyl-, 2-[methyl(3-thienylmethyl)amino]ethyl ester, 5,5-dioxide]",149 nM
25,"CC1=C(C(=O)OCCN(C)Cc2ccsc2)C(c2c(O)cccc2Cl)C2=C(CCCCS2(=O)=O)N1 (centres unmarked) [Compound 25, Thiepino[3,2-b]pyridine-3-carboxylic acid, 4-(2-chloro-6-hydroxyphenyl)-1,4,6,7,8,9-hexahydro-2-methyl-, 2-[methyl(3-thienylmethyl)amino]ethyl ester, 5,5-dioxide]",815 nM
26,"CC1=C(C(=O)OCCN(C)Cc2ccsc2)C(c2cccc([N+](=O)[O-])c2)C2=C(CCCCS2(=O)=O)N1 (centres unmarked) [Compound 26, Thiepino[3,2-b]pyridine-3-carboxylic acid, 1,4,6,7,8,9-hexahydro-2-methyl-4-(3-nitrophenyl)-, 2-[methyl(3-thienylmethyl)amino]ethyl ester, 5,5-dioxide]",51 nM
